Laboratory results: PubChem BioAssay (NCI)
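Results reflect a 48-hour exposure of cells in 96-well plates to compound at five concentrations. The concentration for 50% growth inhibition is given as GI50. TGI: total growth inhibition.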

Legend:
Assay in all cases: inhibition of tumour cell growth, NCI panel, 48 h
786-0 renal = test system: 786-0 renal
A498 renal = test system: A498 renal
A549 NSCLC = test system: A549 NSCLC
ACHN renal = test system: ACHN renal
BT-549 breast = test system: BT-549 breast
CAKI-1 renal = test system: CAKI-1 renal
CCRF-CEM leukemia = test system: CCRF-CEM leukemia
COLO 205 colon = test system: COLO 205 colon
DU-145 prostate = test system: DU-145 prostate
EKVX NSCLC = test system: EKVX NSCLC
HCC-2998 colon = test system: HCC-2998 colon
HCT-116 colon = test system: HCT-116 colon
HCT-15 colon = test system: HCT-15 colon
HL-60(TB) leukemia = test system: HL-60(TB) leukemia
HOP-62 NSCLC = test system: HOP-62 NSCLC
HOP-92 NSCLC = test system: HOP-92 NSCLC
HS 578T breast = test system: HS 578T breast
HT29 colon = test system: HT29 colon
IGROV1 ovarian = test system: IGROV1 ovarian
K-562 leukemia = test system: K-562 leukemia
KM12 colon = test system: KM12 colon
LOX IMVI melanoma = test system: LOX IMVI melanoma
M14 melanoma = test system: M14 melanoma
MALME-3M melanoma = test system: MALME-3M melanoma
MCF7 breast = test system: MCF7 breast
MDA-MB-231 breast = test system: MDA-MB-231 breast
MDA-MB-435 = test system: MDA-MB-435
MOLT-4 leukemia = test system: MOLT-4 leukemia
NCI-H226 lung = test system: NCI-H226 lung
NCI-H23 lung = test system: NCI-H23 lung
NCI-H460 lung = test system: NCI-H460 lung
NCI-H522 lung = test system: NCI-H522 lung
NCI/ADR-RES ovarian = test system: NCI/ADR-RES ovarian
OVCAR-3 ovarian = test system: OVCAR-3 ovarian
OVCAR-4 ovarian = test system: OVCAR-4 ovarian
OVCAR-5 ovarian = test system: OVCAR-5 ovarian
OVCAR-8 ovarian = test system: OVCAR-8 ovarian
PC-3 prostate = test system: PC-3 prostate
RPMI-8226 leukemia = test system: RPMI-8226 leukemia
RXF 393 renal = test system: RXF 393 renal
SF-268 CNS = test system: SF-268 CNS
SF-295 CNS = test system: SF-295 CNS
SF-539 CNS = test system: SF-539 CNS
SK-MEL-2 melanoma = test system: SK-MEL-2 melanoma
SK-MEL-28 melanoma = test system: SK-MEL-28 melanoma
SK-MEL-5 melanoma = test system: SK-MEL-5 melanoma
SK-OV-3 ovarian = test system: SK-OV-3 ovarian
SN12C renal = test system: SN12C renal
SNB-19 CNS = test system: SNB-19 CNS
SNB-75 CNS = test system: SNB-75 CNS
SR leukemia = test system: SR leukemia
SW-620 colon = test system: SW-620 colon
T-47D breast = test system: T-47D breast
TK-10 renal = test system: TK-10 renal
U251 CNS = test system: U251 CNS
UACC-257 melanoma = test system: UACC-257 melanoma
UACC-62 melanoma = test system: UACC-62 melanoma
UO-31 renal = test system: UO-31 renal

## COc1cc2c3c(cc4c5c(ccc4c3c1OC)OCO5)N(CCN(C)C)C2=O
786-0 renal
  GI50: 35 nM
  TGI: 654 nM
A498 renal
  GI50: 77.6 nM
  TGI: 299 nM
A549 NSCLC
  GI50: 13.3 nM
  TGI: 385 nM
ACHN renal
  GI50: 21.5 nM
  TGI: 81.2 nM
BT-549 breast
  GI50: 234 nM
  TGI: 1530 nM
CAKI-1 renal
  GI50: 39.3 nM
  TGI: 261 nM
CCRF-CEM leukemia
  GI50: 28.1 nM
  TGI: 9640 nM
COLO 205 colon
  GI50: 116 nM
  TGI: 935 nM
DU-145 prostate
  GI50: 35.4 nM
  TGI: 490 nM
EKVX NSCLC
  GI50: 104 nM
  TGI: 669 nM
HCC-2998 colon
  GI50: 85.8 nM
  TGI: 295 nM
HCT-116 colon
  GI50: 42.9 nM
  TGI: 422 nM
HCT-15 colon
  GI50: 34 nM
  TGI: 605 nM
HL-60(TB) leukemia
  GI50: 22.6 nM
  TGI: 118 nM
HOP-62 NSCLC
  GI50: 35.9 nM
  TGI: 1620 nM
HOP-92 NSCLC
  GI50: 60.9 nM
  TGI: 561 nM
HS 578T breast
  GI50: 190 nM
  TGI: 1280 nM
HT29 colon
  GI50: 87.1 nM
  TGI: 1260 nM
IGROV1 ovarian
  GI50: 47.2 nM
  TGI: 501 nM
K-562 leukemia
  GI50: 50 nM
KM12 colon
  GI50: 196 nM
  TGI: 11700 nM
LOX IMVI melanoma
  TGI: 49.6 nM
M14 melanoma
  GI50: 46.6 nM
  TGI: 400 nM
MALME-3M melanoma
  GI50: 64.2 nM
  TGI: 258 nM
MCF7 breast
  GI50: 32.2 nM
  TGI: 579 nM
MDA-MB-231 breast
  GI50: 249 nM
  TGI: 1610 nM
MDA-MB-435
  GI50: 170 nM
  TGI: 615 nM
MOLT-4 leukemia
  GI50: 23.6 nM
  TGI: 1410 nM
NCI-H226 lung
  GI50: 69.6 nM
  TGI: 344 nM
NCI-H23 lung
  GI50: 53.8 nM
  TGI: 339 nM
NCI-H460 lung
  GI50: 17.6 nM
  TGI: 147 nM
NCI-H522 lung
  GI50: 101 nM
  TGI: 599 nM
NCI/ADR-RES ovarian
  GI50: 68.5 nM
  TGI: 675 nM
OVCAR-3 ovarian
  GI50: 199 nM
  TGI: 1140 nM
OVCAR-4 ovarian
  GI50: 309 nM
  TGI: 7840 nM
OVCAR-5 ovarian
  GI50: 133 nM
  TGI: 907 nM
OVCAR-8 ovarian
  GI50: 59.6 nM
  TGI: 5980 nM
PC-3 prostate
  GI50: 157 nM
  TGI: 4440 nM
RPMI-8226 leukemia
  GI50: 43.7 nM
  TGI: 517 nM
RXF 393 renal
  GI50: 89.4 nM
  TGI: 264 nM
SF-268 CNS
  GI50: 104 nM
  TGI: 1040 nM
SF-295 CNS
  GI50: 33.5 nM
  TGI: 229 nM
SF-539 CNS
  GI50: 110 nM
  TGI: 411 nM
SK-MEL-2 melanoma
  GI50: 313 nM
  TGI: 804 nM
SK-MEL-28 melanoma
  GI50: 182 nM
  TGI: 676 nM
SK-MEL-5 melanoma
  GI50: 92.4 nM
  TGI: 225 nM
SK-OV-3 ovarian
  GI50: 74.6 nM
  TGI: 600 nM
SN12C renal
  GI50: 31.8 nM
  TGI: 378 nM
SNB-19 CNS
  GI50: 38.9 nM
  TGI: 2610 nM
SNB-75 CNS
  GI50: 71.1 nM
  TGI: 583 nM
SR leukemia
  GI50: 22.5 nM
SW-620 colon
  GI50: 36.3 nM
  TGI: 1330 nM
T-47D breast
  GI50: 64.9 nM
  TGI: 3050 nM
TK-10 renal
  GI50: 170 nM
  TGI: 702 nM
U251 CNS
  GI50: 38.9 nM
  TGI: 1430 nM
UACC-257 melanoma
  GI50: 166 nM
  TGI: 596 nM
UACC-62 melanoma
  GI50: 56.7 nM
  TGI: 229 nM
UO-31 renal
  GI50: 34.3 nM
  TGI: 201 nM

## C=C(C)[C@@H]1CC[C@]2(COS(C)(=O)=O)CC[C@]3(C)[C@H](CC[C@@H]4[C@@]5(C)CCCNC(C)(C)[C@@H]5CC[C@]43C)[C@@H]12
786-0 renal
  GI50: 1800 nM
  TGI: 3270 nM
A498 renal
  GI50: 1820 nM
  TGI: 6160 nM
A549 NSCLC
  GI50: 1820 nM
  TGI: 3630 nM
ACHN renal
  GI50: 1810 nM
  TGI: 3200 nM
BT-549 breast
  GI50: 1990 nM
  TGI: 4080 nM
CAKI-1 renal
  GI50: 1670 nM
  TGI: 3190 nM
CCRF-CEM leukemia
  GI50: 1760 nM
  TGI: 4420 nM
COLO 205 colon
  GI50: 1730 nM
  TGI: 3270 nM
DU-145 prostate
  GI50: 1810 nM
  TGI: 3290 nM
EKVX NSCLC
  GI50: 1580 nM
  TGI: 3140 nM
HCC-2998 colon
  GI50: 1740 nM
  TGI: 3160 nM
HCT-116 colon
  GI50: 1720 nM
  TGI: 3240 nM
HCT-15 colon
  GI50: 1570 nM
  TGI: 3060 nM
HL-60(TB) leukemia
  GI50: 1620 nM
  TGI: 3390 nM
HOP-62 NSCLC
  GI50: 1670 nM
  TGI: 3210 nM
HOP-92 NSCLC
  GI50: 1300 nM
  TGI: 2810 nM
HS 578T breast
  GI50: 1850 nM
  TGI: 3920 nM
HT29 colon
  GI50: 1830 nM
  TGI: 3550 nM
IGROV1 ovarian
  GI50: 1770 nM
  TGI: 3570 nM
K-562 leukemia
  GI50: 1160 nM
  TGI: 3060 nM
KM12 colon
  GI50: 1830 nM
  TGI: 3390 nM
LOX IMVI melanoma
  GI50: 1090 nM
  TGI: 2370 nM
M14 melanoma
  GI50: 1780 nM
  TGI: 3470 nM
MALME-3M melanoma
  GI50: 1770 nM
  TGI: 3730 nM
MCF7 breast
  GI50: 1590 nM
  TGI: 3500 nM
MDA-MB-231 breast
  GI50: 1800 nM
  TGI: 3310 nM
MDA-MB-435
  GI50: 1640 nM
  TGI: 3040 nM
MOLT-4 leukemia
  GI50: 1650 nM
  TGI: 3620 nM
NCI-H226 lung
  GI50: 1770 nM
  TGI: 3400 nM
NCI-H23 lung
  GI50: 1680 nM
  TGI: 3340 nM
NCI-H460 lung
  GI50: 1800 nM
  TGI: 3490 nM
NCI/ADR-RES ovarian
  GI50: 1720 nM
  TGI: 3270 nM
OVCAR-3 ovarian
  GI50: 1790 nM
  TGI: 3220 nM
OVCAR-4 ovarian
  GI50: 1820 nM
  TGI: 3650 nM
OVCAR-5 ovarian
  GI50: 1680 nM
  TGI: 3100 nM
OVCAR-8 ovarian
  GI50: 1930 nM
  TGI: 3770 nM
PC-3 prostate
  GI50: 1590 nM
  TGI: 3430 nM
RPMI-8226 leukemia
  GI50: 2050 nM
  TGI: 4620 nM
RXF 393 renal
  GI50: 1660 nM
  TGI: 3080 nM
SF-268 CNS
  GI50: 2610 nM
  TGI: 6490 nM
SF-295 CNS
  GI50: 1820 nM
  TGI: 3330 nM
SF-539 CNS
  GI50: 1660 nM
  TGI: 3080 nM
SK-MEL-2 melanoma
  GI50: 1690 nM
  TGI: 3540 nM
SK-MEL-28 melanoma
  GI50: 1700 nM
  TGI: 3220 nM
SK-MEL-5 melanoma
  GI50: 1730 nM
  TGI: 3130 nM
SK-OV-3 ovarian
  GI50: 6440 nM
  TGI: 19600 nM
SN12C renal
  GI50: 2280 nM
  TGI: 5480 nM
SNB-19 CNS
  GI50: 1750 nM
  TGI: 3280 nM
SNB-75 CNS
  GI50: 1370 nM
  TGI: 3080 nM
SR leukemia
  GI50: 1560 nM
  TGI: 3520 nM
SW-620 colon
  GI50: 1680 nM
  TGI: 3340 nM
T-47D breast
  GI50: 1780 nM
  TGI: 4000 nM
TK-10 renal
  GI50: 1680 nM
  TGI: 3580 nM
U251 CNS
  GI50: 1750 nM
  TGI: 3290 nM
UACC-257 melanoma
  GI50: 1990 nM
  TGI: 4270 nM
UACC-62 melanoma
  GI50: 1720 nM
  TGI: 3140 nM
UO-31 renal
  GI50: 1270 nM
  TGI: 2630 nM
